Entries after “also recorded” stand apart in the source; their conditions may differ. Like-named read-outs stand apart in the source and are kept apart here.
Key:
[1] = target: (human) albumin; conditions: ochratoxin A to (human) albumin, ref [45], cited from earlier work
[2] = read-out: binding constant KD, aflatoxin B1; cited from earlier work
[3] = read-out: binding constant KD, aflatoxin B2; cited from earlier work
[4] = Solid phase microtitre plate binding assay with ochratoxin A-HRP; conditions: ochratoxin A-HRP serial dilutions, PBS pH 7.4, 1.5 h, room temperature, A 450 nm; for binding of ochratoxin A-HRP, amine-coupled peptide: amine coupling (NHS/EDC); for binding of ochratoxin A-HRP, thiol-coupled peptide: thiol coupling (SPDP)
Source text: Solid phase binding assay provides a platform to test the binding capacity of the designed peptides to ochratoxin A in vitro. Each peptide sequence was immobilized to the surface of a functionally modified (R2-NH) microtitre plate via either amine coupling using N-hydroxysuccinimide (NHS)/N-(3-dimethylaminopropyl)-N'-ethylcarbodiimide (EDC) coupling chemistry or thiol coupling using a heterobifunctional crosslinker (N-Succinimidyl 3-(2-pyridyldithio) propionate (SPDP)) employing the terminal cysteine residues of the peptide sequences to allow for site-directed surface attachment. Enzyme-labelled ochratoxin A-HRP was added in a concentration-dependent manner to the immobilized peptides, and the absorbance signal (blank subtracted) was compared for both peptides and immobilization techniques, as shown in Figure 3.
To test the initial binding of the peptides with ochratoxin A, the peptides were immobilized to a (NH)-functionally modified polystyrene microtitre plate via: (1) amine-coupling using a NHS/EDC linker and (2) thiol-coupling using SPDP, a hetero-bifunctional cross-linker reagent with amine and sulfhydryl groups.
Amine coupling was performed as follows: 100 mg L^−1 of each peptide solution in 10 mM carbonate buffer pH 9.6 was incubated on the NH-wells for 30 min, then 200 mM EDC and 50 mM NHS (1:1 v/v) were added and incubated for one hour. The plates were washed using PBST and blocked using 0.1 M ethanolamine for 30 min. Thiol coupling was performed via the immobilization of 1.5 mg mL^−1 SPDP in phosphate buffer (PBS) pH 7.4 incubated for 30 min at room temperature. The peptides were added at 100 mg L^−1 in a phosphate buffer pH 8.0 and incubated for another two hours at room temperature. The plates were washed using PBST and blocked for one hour using 1 g L^−1 cysteine in 1 M NaCl and 0.1 M sodium acetate, pH 4.0.
The binding of ochratoxin A-HRP conjugate in phosphate buffer pH 7.4 was performed at decreasing serial dilutions and incubated with the immobilized peptides for 1.5 h. The zero reference was determined with ochratoxin-HRP alone on 0.1 M ethanolamine blocked wells without immobilized peptide. All incubations were performed at room temperature. Detection was performed, after washing the microtiter plates using PBST, with the chromogenic HRP-substrate TMB in ready-made solution containing hydrogen peroxide. The absorbance was read after 20 min at 450 nm.

[5] = SPR (Biacore 3000) binding of ochratoxin A-BSA to immobilised peptide or antibody; conditions: for Kd: Biacore 3000, CM5 chip, peptide immobilised by amine coupling, ochratoxin A-BSA 0.01–100 mg L^−1, HBS-EP pH 7.4, 25 °C, 1:1 Langmuir model, estimated; for on and off rates: Biacore 3000, ochratoxin A-BSA over immobilised ligand; for on and off rates / binding affinity (in words): HBS-EP pH 7.4, 25 °C; for binding affinity (in words): Biacore 3000, ochratoxin A-BSA
Source text: (§1) To determine affinities for the peptide binding interaction, the peptides were immobilized on two adjacent flow cells onto a CM5 Biacore chip to a level of 251 RU (octapeptide) and 227 RU (13-mer peptide). This was in order to study the binding interaction between the peptides and ochratoxin A using a Biacore 3000. A commercial ochratoxin A-BSA conjugate was used as the analyte to obtain a significant signal response for a binding event. Initially, one saturating concentration of ochratoxin A-BSA conjugate (100 mg L^−1) was injected over each immobilized peptide ligand to confirm binding (Figure 4).
To establish the affinity of the interaction, decreasing ochratoxin A-BSA concentrations were injected onto the immobilized peptides surfaces (Figure 5).
The binding interaction analysis of the peptide receptor with ochratoxin A was carried out on a CM5 (carboxymethylated dextran) sensor chip at 25 °C. HBS-EP (0.01 M HEPES pH 7.4, 0.15 M NaCl, 3 mM EDTA, 0.005% Surfactant P20) was used as the running and dilution buffer. Peptides (100 mg L^−1 in 10 mM acetate buffer, pH 4.5) were immobilised using 0.4 M N-(3-dimethylaminopropyl)-N'-ethylcarbodiimide (EDC) and 0.1 M N-hydroxysuccinimide (NHS), applying amine coupling chemistry. In brief, a 1:1 mixture of NHS and EDC was injected as 5 μL min^−1 flow rate for 7 min, followed by injection of 75 µL peptide ligand (5 µL min^−1) for 15 min and blocking of residual binding sites with 1 M Ethanolamine, pH 8.3 (35 µL). To establish binding kinetics, various concentrations of ochratoxin A-BSA conjugate (0.01–100 mg L^−1, 60 µL in HBS-EP pH 7.4) were injected at 5 µL min^−1 over each immobilised peptide surface. BSA alone was injected as non-specific analyte control. Dissociation was monitored during 10 min without dissociating agents (flowing only running buffer). The kinetic parameters of the binding reactions were determined using BIAevaluation 3.2 software.

[6] = system: BSA; test: SPR (Biacore 3000) non-specific binding control with BSA alone; conditions: immobilised peptide, BSA alone 100 mg L^−1
Source text: as §1
Immobilization methods, especially via amine coupling, can reduce the activity of the immobilized molecule and, thus, have reduced binding capacity, which can be substantially different from the theoretical binding capacity. This is a common and known problem in binding interaction analysis. […]
The binding interaction analysis of the peptide receptor with ochratoxin A was carried out on a CM5 (carboxymethylated dextran) sensor chip at 25 °C. […] Dissociation was monitored during 10 min without dissociating agents (flowing only running buffer). The kinetic parameters of the binding reactions were determined using BIAevaluation 3.2 software.

[7] = Water solubility of synthesized peptides; assay type: physicochemical
[8] = combinatorial peptide-phage display library; cited from earlier work

Molecule	binding of ochratoxin A-HRP, amine-coupled peptide [4]	binding of ochratoxin A-HRP, thiol-coupled peptide [4]	Kd [5] [µM]	on and off rates [5]	binding affinity (in words) [5]	non-specific binding to unconjugated BSA [6]	water solubility [7]	further results
C[C@@H]1Cc2c(Cl)cc(C(=O)N[C@@H](Cc3ccccc3)C(=O)O)c(O)c2C(=O)O1 [ochratoxin A]	–	–	–	–	–	–	–	Kd ([1]; high affinity binding sites, read-out: KD, high affinity binding site): ~0.019 µM; Kd ([1]; weak affinity sites, read-out: KD, weak affinity site): ~1 µM
Leu-Leu-Ala-Arg-NH2	–	–	–	–	–	–	–	Kd [2]: ~8.3 µM; Kd [3]: ~3.4 µM
N'-Cys-Ser-Ile-Val-Glu-Asp-Gly-Lys-C' [octapeptide]	ochratoxin A-HRP binds	much higher binding signals	11.8	fast on and off rates	weak affinity interactions; also recorded: weak binding affinity	no non-specific binding	water soluble	–
N'-Gly-Pro-Ala-Gly-Ile-Asp-Gly-Pro-Ala-Gly-Ile-Arg-Cys-C' [13-mer peptide]	decreased	good binding capacity	15.7	fast on and off rates; also recorded: faster on and off rates	weak binding affinity	no non-specific binding	water soluble	binding affinity (in words) ([5]; listed as 13-mer): weak affinity interactions
N'-Ser-Asn-Leu-His-Pro-Lys-C'	–	–	–	–	–	–	–	Kd [8]: ~2.9 µM

Source: paper PMC3717777 (Toxins, 2013)
